Assay results taken from the METLIN SMRT retention time set (Domingo-Almenara et al. 2019).

test: gradient 5% acetonitrile 3 min, to 50% in 2 min, to 85% in 15 min, held 3 min, 100 µL/min; details: column: Zorbax Extend-C18 2.1 x 50 mm; eluents: water / acetonitrile, 0.1% formic acid
Method in brief: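 Standards, all pure, were combined into mixtures of ~100 molecules and run at 100 μL/min on a Zorbax Extend-C18 column (2.1 × 50 mm, 1.8 μm) with water and acetonitrile, each containing 0.1% formic acid. A coupled quadrupole time-of-flight mass spectrometer operated in positive and negative ionization mode. Retention time values come from computationally picked adduct peaks, each inspected manually.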

| SMILES | RP-LC retention time [s] |
| --- | --- |
| O=C(Cn1nc(N2CCOCC2)c2ccccc2c1=O)Nc1ccc(F)cc1 | 839 |
| COc1ccc(NC(=O)C2CCCN2S(=O)(=O)c2ccc3c(c2)N(C(C)=O)CCO3)cc1 (stereo not drawn) | 762 |
| Cc1ccc(CNC(=O)C2(C)CCN(C(=O)Nc3cc(Cl)ccc3C)CC2)cc1 | 936 |
| Cn1nc(C2CCCN(C(=O)c3ccoc3)C2)n(C2CCCC2)c1=O (stereo not drawn) | 672 |
| O=C(Cn1c(=O)c(CCC(=O)NC2CC2)nc2ccccc21)Nc1ccccc1Br | 712 |
| O=C(CSc1ccc(N2CCOCC2)nn1)Nc1ccccc1Cl | 730 |
| CCOc1ccc(NC(=O)Cn2c(=O)cc(-c3nc(C)no3)c3ccccc32)cc1 | 862 |
| CCOC(=O)N1CCN(C(=O)CSc2nncn2C)CC1 | 560 |
| Clc1cc(Br)ccc1-c1ccc(CNCc2cccnc2)o1 | 664 |
| COc1ccccc1-c1nnc(-c2ccc(Cl)c(S(=O)(=O)N3CCCC3)c2)o1 | 992 |
| O=C(CCCc1ccccc1)N1C[C@H]2CNC(=O)[C@]23CCCC[C@@H]13 | 770 |
| CCOC(=O)C(=O)Nc1ccc(-c2nc(-c3cc(C)ccc3C)co2)cc1 | 1180 |
| N#CC1(C(=O)NCc2nc(-c3ccccc3)no2)CC1 | 729 |
| COc1ccc(CCNC(=O)CSc2nnc(Cc3csc(N)n3)n2C)cc1OC | 539 |
| Cc1ccc(NC(=O)C2CCN(C(=O)C3Sc4ccccc4NC3=O)CC2)cc1C (stereo not drawn) | 818 |
| O=C(C1CCCN(c2ccc(-c3ccccc3)nn2)C1)N1CCN(C2CCCCC2)CC1 (stereo not drawn) | 597 |
| CC(C)Cc1cc(-c2nn3c(-c4cccc(Cl)c4)nnc3s2)n[nH]1 | 1080 |
| Cn1cc(CC(=O)NCc2cc(-c3ccc4c(c3)OCO4)on2)c2ccccc21 | 813 |
| Cc1ccc(NC(=O)Cn2c(C)nc3cc4c(cc32)OCCO4)c(C)c1 | 668 |

| SMILES | RP-LC retention time [s] |
| --- | --- |
| Cc1c(Cl)cccc1NC(=O)CCOc1ccccc1 | 888 |
| CC(C)c1noc(C2CCCN(S(=O)(=O)c3cn(C)cn3)CCC(=O)NCC2)n1 (stereo not drawn) | 640 |
| COc1ccc(C(O)Cn2ccn3nc(-c4cc(C)ccc4C)cc3c2=O)cc1 (stereo not drawn) | 949 |
| CC(C)CCNC(=O)CC1Sc2ncccc2N(CC(C)C)C1=O (stereo not drawn) | 868 |
| O=C(CSc1nnc(-c2ccc(Cl)cc2)o1)Nc1nccs1 | 867 |
| Cc1cccc(-c2nnc(SCc3cc(=O)n4ccsc4n3)o2)c1 | 821 |
| Cc1nc(C2(C)CCN(S(=O)(=O)c3ccccc3Cl)CC2)no1 | 911 |
| NC(=O)C1CCN(C(=O)c2nnn(-c3ccccc3Cl)c2-c2ccncc2)CC1 | 603 |
| CCOC(=O)c1nc(N2CCN(c3ccccn3)CC2)c2c(C)noc2n1 | 596 |
| CC(=O)N1CCC(Cc2noc(C3CC3)n2)C1 (stereo not drawn) | 625 |
| CCOc1ccc(NC(=O)c2cnc(-c3ccc(F)cc3)nc2-c2ccncc2)cc1 | 935 |
| CCOCCCN1C(=O)c2cc(-c3ccccc3)nn2CC1(C)C(=O)NCc1ccccc1 (stereo not drawn) | 914 |
| CNC(=O)c1cccc2c1CCN2C(=O)Nc1ccc(C)cc1 | 747 |
| Cc1noc(C)c1CC(=O)N1CCCn2ccnc2C1C1CCCC1 (stereo not drawn) | 595 |
| CCc1cccc(NC(=O)N2[C@H]3CC[C@@H]2c2cncnc2C3)c1 | 741 |
| Cc1cc(C)cc(NC(=O)N2CCC(N3CCN(Cc4ccccc4)C(=O)C3=O)CC2)c1 | 740 |
| CCOC(=O)c1cccc(NC(=O)CN2C(=O)C(C)(C)c3ccccc32)c1 | 900 |
| Cc1ccc(-c2nc(C)cc(OCC(=O)Nc3ccccc3C)n2)cc1 | 1030 |
| CC(C)C(=O)Nc1ccc(-n2cnc(C(=O)NCC3CCCO3)c2)nc1 (stereo not drawn) | 647 |
